Reference: US20260226527A1, “METHODS FOR IDENTIFYING HERBICIDAL COMPOUNDS” (SYNGENTA CROP PROTECTION AG, priority 2023, published 2026)

Molecular target: T1, mature Arabidopsis BIO3-BIO1 (SEQ ID NO: 21) (Arabidopsis thaliana, UniProt B0F481)
T1 construct: 6xHis (N); thrombin cleavage site (N); made in house; host or cells: E. coli BL21 (DE3) bioA
T1 sequence (B0F481 with tags, fused parts or gaps): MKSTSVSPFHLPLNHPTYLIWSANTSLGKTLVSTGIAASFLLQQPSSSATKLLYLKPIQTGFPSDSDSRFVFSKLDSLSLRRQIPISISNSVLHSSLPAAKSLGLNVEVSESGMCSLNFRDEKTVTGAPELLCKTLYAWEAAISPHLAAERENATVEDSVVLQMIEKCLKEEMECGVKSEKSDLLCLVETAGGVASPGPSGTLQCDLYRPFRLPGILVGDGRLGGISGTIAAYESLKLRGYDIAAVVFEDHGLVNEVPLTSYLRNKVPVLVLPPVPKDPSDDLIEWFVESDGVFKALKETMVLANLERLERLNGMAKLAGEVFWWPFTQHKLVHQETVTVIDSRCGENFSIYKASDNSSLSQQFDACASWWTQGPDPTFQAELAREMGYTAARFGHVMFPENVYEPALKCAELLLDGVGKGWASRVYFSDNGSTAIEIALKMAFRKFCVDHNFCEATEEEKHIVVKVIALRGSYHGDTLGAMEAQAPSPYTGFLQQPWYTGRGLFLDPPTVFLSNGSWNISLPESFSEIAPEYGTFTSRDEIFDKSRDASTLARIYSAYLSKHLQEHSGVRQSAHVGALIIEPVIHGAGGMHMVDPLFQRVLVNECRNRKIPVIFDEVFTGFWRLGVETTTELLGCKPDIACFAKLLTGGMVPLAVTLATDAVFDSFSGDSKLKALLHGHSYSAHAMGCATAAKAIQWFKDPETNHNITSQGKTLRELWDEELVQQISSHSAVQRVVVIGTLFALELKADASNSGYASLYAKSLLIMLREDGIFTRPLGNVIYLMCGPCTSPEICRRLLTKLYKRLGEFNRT
Test: DAPA-AT assay with spermidine as amine donor, fluorescent detection of DAPA:o-phthalaldehyde
Type: biochemical
Details: 10 μM spermidine, 1 μM KAPA, 60 minutes at 20° C.; for inhibition at 1 µM: inhibitor concentration 1 μM; for inhibition at 5 µM: inhibitor concentration 5 μM; for inhibition at 20 µM: inhibitor concentration 20 μM; for inhibition at 100 µM: inhibitor concentration 100 μM; for inhibition at 0.2 µM: inhibitor concentration 0.2 μM
Method: A pET-24 plasmid containing a DNA sequence encoding BIO3-BIO1 derived from Arabidopsis thaliana, codon-optimised for expression in E. coli, with the predicted N-terminal mitochondrial transit peptide removed and with an N-terminal 6×His-tag and thrombin cleavage site and under control of a T7 promoter (SEQ ID NO:38), was synthesised by Twist Bioscience. The plasmid was expressed in E. coli BL21 (DE3) bioA with 50 μg/mL kanamycin and 25 μg/mL chloramphenicol selection. Overnight cultures grown at 37° C. were used to inoculate 8×500 mL AIM in shake flasks at a ratio of 1:100. Cultures were grown at 37° C., 200 rpm for 3.5 hours and then overnight at 20° C. Cells were harvested by centrifugation for 30 minutes at 10 000 g. Cells were stored at −80° C. until extraction. 30 g of cell pellet from was thawed in 120 mL of IMAC buffer A (20 mM HEPES pH7.5, 25 mM imidazole, 500 mM sodium chloride, 0.15 mM pyridoxal phosphate, 0.5 mM TCEP, 1×complete Protease Inhibitor Tablet (Roche)). The resuspension was passed through a cell disrupter at 18 000 PSI and centrifuged at 50 000 g for 25 minutes at 4° C. The His-tagged BIO3-BIO1 protein was purified from the extract supernatant on an ÄKTA avant chromatography system (Cytiva) using a HisTrap FF column and eluted in IMAC buffer B ((20 mM HEPES pH7.5, 500 mM imidazole, 500 mM sodium chloride, 0.15 mM pyridoxal phosphate, 0.5 mM TCEP) followed by SEC using a HiLoad 26/60 Superdex200 column in SEC buffer (25 mM HEPES pH7.5, 150 mM sodium chloride, 0.15 mM pyridoxal phosphate, 0.5 mM TCEP). Protein concentration was measured and calculated using the absorbance at 280 nm. Extracts were diluted 1 in 4 and 10 uL was analysed by SDS PAGE.
To measure DAPA-AT enzyme activity in the presence of herbicide (candidate compound), 0.5 μL of the herbicide was incubated with 20 μL of enzyme mix (100 mM EPPS pH 8.6, 0.1 mM pyridoxal phosphate, 0.1 mg/mL BSA, 25 nM BIO3-BIO1 enzyme) for 10 minutes at 20° C. in a well of a 384-well black plate, followed by the addition of 20 μL of substrate mix (final concentration of 100 mM EPPS pH 8.6, 0.1 mM pyridoxal phosphate, 0.1 mg/mL BSA, 10 μM spermidine, 1 μM KAPA, 100 mM NaHCO3) and further incubation for 60 minutes at 20° C. The reaction was terminated by the addition of 50 μL of derivatisation mix consisting of 185 mM borate NaOH pH 9.4, 3 mM o-phthalaldehyde, 6 mM β-mercaptoethanol, 22.5% (v/v) ethanol, 3% (v/v) methanol. The fluorescent product produced by the reaction of DAPA with o-phthalaldehyde and β-mercaptoethanol was measured at 470 nm after excitation at 410 nm. The percentage inhibition was calculated using the equation, % inhibition=100×((((MAX−MIN)−(X−MIN))/(MAX−MIN))), where MIN and MAX are the average of the minimum reaction and maximum reaction controls and X is the test sample. Compounds are typically added directly to the assay plate in a serial 3× dilution from a top final concentration of 100 μM over 10 different concentrations. The percent inhibition values are fitted to a dose-response using the equation Y=Bottom+(Top−Bottom)/(1+((X^Hill Slope)/(IC50^Hill Slope))) to calculate the compound concentration that gives 50% inhibition (IC50).

## CCOC(=O)c1nn(-c2ccc3c(c2)OC(F)(F)C(F)(F)O3)c2cccc(C(C)=O)c2c1=O [Compound A, ethyl 5-acetyl-4-oxo-1-(2,2,3,3-tetrafluoro-1,4-benzodioxin-6-yl)cinnoline-3-carboxylate]
  inhibition at 1 µM: 59%
  inhibition at 5 µM: 84%

## CC(O)C(N)CCCCC(=O)O (centres unmarked) [Compound B, [5-carboxy-1-(1-hydroxyethyl)pentyl]ammonium; chloride]
  inhibition at 20 µM: 84%
  inhibition at 100 µM: 95%

## CCn1c(C)c(-c2ccc(F)cc2F)c(=O)c(C(=O)O)c1-c1ccc(Cl)c(Cl)c1 [Compound C, 2-(3,4-dichlorophenyl)-5-(2,4-difluorophenyl)-1-ethyl-6-methyl-4-oxo-pyridine-3-carboxylic acid]
  inhibition at 0.2 µM: 29%
  inhibition at 1 µM: 64%
  inhibition at 5 µM: 85%

## CCn1c(C)c(-c2cc(OC(F)(F)F)ccc2Cl)c(=O)c(C(=O)O)c1-c1ccc(Cl)c(Cl)c1 [Compound D, 5-[2-chloro-5-(trifluoromethoxy)phenyl]-2-(3,4-dichlorophenyl)-1-ethyl-6-methyl-4-oxo-pyridine-3-carboxylic acid]
  inhibition at 0.2 µM: 51%
  inhibition at 1 µM: 84%
  inhibition at 5 µM: 95%

## C[C@@H](N)COc1cccc(C(=O)O)n1 [Compound E, [(1R)-2-(6-carboxypyridin-1-ium-2-yl)oxy-1-methyl-ethyl]ammonium; dichloride]
  inhibition at 20 µM: 80%
  inhibition at 100 µM: 94%

## CCn1c(Cn2ccc(C(F)(F)F)n2)cc(=O)c(C(=O)O)c1-c1ccc(Cl)c(Cl)c1 [Compound L, 2-(3,4-dichlorophenyl)-1-ethyl-4-oxo-6-[[3-(trifluoromethyl)pyrazol-1-yl]methyl]pyridine-3-carboxylic acid]
  inhibition at 0.2 µM: 6%
  inhibition at 1 µM: 44%
  inhibition at 5 µM: 83%

## CCn1c(-c2ccc(Cl)c(Cl)c2)c(C(=O)O)c(=O)c2cc(F)ccc21 [Compound M, 2-(3,4-dichlorophenyl)-1-ethyl-6-fluoro-4-oxo-quinoline-3-carboxylic acid]
  inhibition at 1 µM: 58%
  inhibition at 5 µM: 82%
